Article PMC7115580 (European Journal of Medicinal Chemistry, 2017)
pEC50: −log10 of the molar value. Structures can show the parent of a compound that is named as a salt. Where two headings read alike, the source gives them in different places.

Key:
[1] = test system: Vero cells
[2] = test system: HeLa cells
[3] = test system: human airway epithelial Calu-3 cells; conditions: data not shown
[4] = test system: Punta Toro virus; assay: microbe, parasite or virus in culture; assay type: cell-based; conditions: Vero, read-out: Antiviral activity: EC50, Punta Toro virus
[5] = test system: Reovirus-1; assay: organism not typed; assay type: cell-based; conditions: Vero, read-out: Antiviral activity: EC50, Reovirus-1
[6] = biological target: wild type A/M2 proton channel (Influenza A virus, UniProt P0DOF5); assay type: biochemical; conditions: 100 μM; TEVC, Xenopus oocytes; data not shown
[7] = test system: HeLa cells; remark: listed apart in the source
[8] = metabolites of proguanil ref 32; cited from earlier work
[9] = biological target: hDHFR (Homo sapiens, UniProt P00374); assay type: biochemical; conditions: Lineweaver-Burk plot at 3, 6 and 12 µM; substrate DHF
[10] = test system: Para-influenza-3 virus; assay: organism not typed; assay type: cell-based; conditions: Vero, read-out: Antiviral activity: EC50, Para-influenza-3 virus

Chain of wild type A/M2 proton channel (P0DOF5 whole entry, looked up): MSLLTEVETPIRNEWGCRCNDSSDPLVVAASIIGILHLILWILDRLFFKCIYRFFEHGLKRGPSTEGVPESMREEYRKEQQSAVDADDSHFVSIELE
Chain of hDHFR (P00374 whole entry): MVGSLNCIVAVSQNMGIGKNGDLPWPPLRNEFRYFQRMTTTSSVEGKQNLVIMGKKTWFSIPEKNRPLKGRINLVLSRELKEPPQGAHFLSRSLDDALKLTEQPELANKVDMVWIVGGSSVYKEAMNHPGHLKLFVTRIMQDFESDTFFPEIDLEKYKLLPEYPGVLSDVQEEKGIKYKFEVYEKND

| SMILES | Cytotoxicity: MCC ([1]; Vero cells, microscopy) [µM] | Cytotoxicity: MCC ([2]; HeLa cells, microscopy) [µM] | also measured |
| --- | --- | --- | --- |
| CCC1(C)N=C(N)N=C(N)N1c1ccc(Cl)cc1 (stereo not drawn) [Compound 18] | >100 | >100 |  |
| CC1(C)N=C(N)N=C(N)N1c1ccc(Br)cc1 [Compound 6] | >100 | >100 |  |
| NC1=NC(c2ccccc2)N(c2ccc(Cl)cc2)C(N)=N1 (stereo not drawn) [Compound 28] | >100 |  |  |
| CC1(C)N=C(N)N=C(N)N1c1cccc(Br)c1 [Compound 13] | >100 | ≥100 | Cytotoxicity MCC [3]: > 100 µM |
| CC1(C)N=C(N)N=C(N)N1c1ccc([N+](=O)[O-])cc1 [Compound 7] | >100 | >100 |  |
| CC1(C)N=C(N)N=C(Nc2ccc(Cl)cc2)N1 [Compound 29] | >100 | >100 |  |
| CC1(C)N=C(N)N=C(N)N1c1ccc(C(=O)O)cc1 [Compound 8] | >100 | >100 |  |
| CCCC1N=C(N)N=C(N)N1c1ccc(Cl)cc1 (stereo not drawn) [Compound 27] | >100 | >100 |  |
| CC1(C)N=C(N)N=C(N)N1c1ccccc1 [Compound 2] | >100 | >100 |  |
| COc1c(C)c2c(c(O)c1C/C=C(\C)CCC(=O)O)C(=O)OC2 [Mycophenolic acid] |  |  | pEC50 [4]: 4.70; pEC50 [5]: 5.74 |
| NC1=NC2(CCCC2)N(c2cccc(C(F)(F)F)c2)C(N)=N1 [Compound 22, 2,2-Cyclotetramethylene-4,6-diamino-1-(3-trifluoromethylphenyl)-1,2-dihydrotriazine hydrochloride] | >100 | ≥100 |  |
| CC1(C)N=C(N)N=C(N)N1c1cccc(C(F)(F)F)c1 [Compound 14] |  | ≥100 | Cytotoxicity MCC [3]: > 100 µM; Inhibition of wild type M2 channel [6]: neither of the three compounds significantly inhibited; Cytotoxicity MCC ([7]; dihydrofolic acid 1.0 μM): 20 µM; Cytotoxicity MCC ([7]; dihydrofolic acid 2.6 μM): 20 µM; Cytotoxicity MCC ([7]; dihydrofolic acid 16 μM): 20 µM; Cytotoxicity MCC ([7]; dihydrofolic acid 40 μM): 20 µM; Cytotoxicity MCC ([7]; dihydrofolic acid 400 μM): 20 µM; Cytotoxicity MCC ([7]; human): 20 µM; Cytotoxicity MCC ([7]; independent of whether dihydrofolic acid was present or not): 20 µM |
| NC1=NC2(CCCCC2)N(c2cccc(C(F)(F)F)c2)C(N)=N1 [Compound 25, 2,2-Cyclopentamethylene-4,6-diamino-1-(3-trifluoromethylphenyl)-1,2-dihydrotriazine hydrochloride] | >100 | ≥100 | Cytotoxicity MCC [3]: > 100 µM |
| CC1(C)N=C(N)N=C(N)N1c1ccc(Cl)c(Cl)c1 [Compound 16] |  | >100 | Cytotoxicity MCC [3]: > 100 µM; Inhibition of wild type M2 channel [6]: neither of the three compounds significantly inhibited |
| CC1(C)N=C(N)N=C(N)N1c1cccc(F)c1 [Compound 12, 4,6-Diamino-2,2-dimethyl-1-(3-fluorophenyl)-1,2-dihydrotriazine hydrochloride] |  |  | Cytotoxicity: MCC ([2]; human): ≥100 µM |
| N=C(N)NC(=N)Nc1ccc(Cl)cc1 [1-(4-chlorophenyl)biguanide] |  |  | Share of the total drug concentration in plasma [8]: ~23% |

| SMILES | Cytotoxicity: MCC ([1]; Vero cells, microscopy) [µM] | Cytotoxicity: MCC ([2]; HeLa cells, microscopy) [µM] | also measured |
| --- | --- | --- | --- |
| CC1(C)N=C(N)N=C(N)N1c1cccc(Cl)c1 [Compound 11] |  | >100 | Cytotoxicity MCC [3]: > 100 µM |
| CC1(C)N=C(N)N=C(N)N1c1ccc(Cl)cc1 [Compound 1, cycloguanil, reference compound] | >100 | >100 | Cytotoxicity MCC [3]: > 100 µM; Share of the total drug concentration in plasma [8]: about 30%; Inhibition of wild type M2 channel [6]: neither of the three compounds significantly inhibited; Inhibition pattern towards the substrate [9]: competitive inhibition pattern |
| CCOC(=O)c1ccc(N2C(N)=NC(N)=NC2(C)C)cc1 [Compound 9] | >100 | >100 |  |
| CC1(C)N=C(N)N=C(N)N1c1cc(C(F)(F)F)cc(C(F)(F)F)c1 [Compound 17, 4,6-Diamino-2,2-dimethyl-1-(3,5-ditrifluoromethylphenyl)-1,2-dihydrotriazine hydrochloride] |  |  | Cytotoxicity: MCC ([1]; African green monkey): >100 µM; Cytotoxicity: MCC ([2]; human): ≥100 µM |
| CC1(C)N=C(N)N=C(N)N1c1ccccc1Cl [Compound 10] | >100 | >100 |  |
| [H]/N=C(\N/C(=N/[H])Nc1ccc(Cl)cc1)NC(C)C [Compound 30, proguanil, reference compound] | 20 | >100 |  |
| CCc1nc(N)nc(N)c1-c1ccc(Cl)cc1 [Compound 32, pyrimethamine, reference compound] |  | ≥100 | Cytotoxicity MCC [3]: > 100 µM |
| NC1=NC2(CCCCC2)N(c2cccc(Cl)c2)C(N)=N1 [Compound 24] | >100 | ≥100 |  |
| CC1(C)N=C(N)N=C(N)N1c1ccc(Cl)cc1Cl [Compound 15] | >100 | >100 |  |
| CC(C)C1(C)N=C(N)N=C(N)N1c1ccc(Cl)cc1 (stereo not drawn) [Compound 19] | >100 | >100 |  |
| CC1(C)N=C(N)N=C(N)N1c1ccc(F)cc1 [Compound 5] | >100 | >100 |  |
| NC1=NC2(CCCC2)N(c2ccc(Cl)cc2)C(N)=N1 [Compound 20] | >100 | >100 |  |
| NC(=O)c1ncn([C@@H]2O[C@H](CO)[C@@H](O)[C@H]2O)n1 [Ribavirin] |  |  | pEC50 [10]: 3.95 |
| NC1=NC2(CCCC2)N(c2cccc(Cl)c2)C(N)=N1 [Compound 21, 1-(3-Chlorophenyl)-2,2-cyclotetramethylene-4,6-diamino-1,2-dihydrotriazine hydrochloride] | >100 | ≥100 |  |
| COc1ccc(N2C(N)=NC(N)=NC2(C)C)cc1 [Compound 4] | >100 | >100 |  |
| Cc1ccc(N2C(N)=NC(N)=NC2(C)C)cc1 [Compound 3] | >100 | >100 |  |
